Data published in the NIST ThermoML archive (doi:10.1016/j.fluid.2014.11.009).

Assays:
[1] = 101 kPa, Liquid; for viscosity: Cone and plate viscometry; for mass density: Vibrating tube method
[2] = xn = mol fraction of the nth substance listed; details: 101 kPa, Liquid; for mass density: Vibrating tube method; for viscosity: Cone and plate viscometry

CN(CCO)CCO [N-methyldiethanolamine]
[1]
Details	mass density [kg/m3]	viscosity [mPa·s]
303.2 K	–	56.3
313.2 K	1026.7	34.44
323.2 K	1018.9	22.93

CN(CCO)CCO [N-methyldiethanolamine] + O
[2]
Details	mass density, x1 = 0.0192 [kg/m3]	mass density, x1 = 0.1168 [kg/m3]	viscosity, x1 = 0.0192 [mPa·s]	viscosity, x1 = 0.1168 [mPa·s]
293.2 K	1011.8	1043.3	–	–
298.2 K	1008.9	1040.4	–	–
303.2 K	1005.8	1037.3	1.568	6.671
313.2 K	999.7	1030.8	1.178	4.706
323.2 K	993.1	1024.1	0.796	3.057
333.2 K	983.8	1016.9	0.688	2.193
343.2 K	977.9	1009.4	–	1.589
353.2 K	970.1	1001.7	–	1.194
363.2 K	962	993.5	–	–

NC(N)=[NH2+].O=S(=O)([O-])C(F)(F)F [guanidinium trifluoromethanesulfonate] + O
[2]
Details	mass density, x1 = 0.0202 [kg/m3]	mass density, x1 = 0.2073 [kg/m3]	viscosity, x1 = 0.0018 [mPa·s]	viscosity, x1 = 0.0056 [mPa·s]	viscosity, x1 = 0.0095 [mPa·s]	viscosity, x1 = 0.0137 [mPa·s]	viscosity, x1 = 0.0181 [mPa·s]	viscosity, x1 = 0.0202 [mPa·s]	viscosity, x1 = 0.2073 [mPa·s]
293.2 K	1087.8	1125	–	–	–	–	–	–	–
298.2 K	1084	1120.3	–	–	–	–	–	–	–
303.2 K	1080.8	1116.9	0.7366	0.7996	0.8208	0.8616	0.9134	0.9855	1.361
313.2 K	1073.9	1110.6	0.6512	0.6757	0.6976	0.7326	0.8268	0.8374	1.098
323.2 K	1067.4	1103.8	0.6047	0.6289	0.6517	0.6872	0.7268	0.7438	0.9221
333.2 K	1059.3	1097.5	0.5555	0.5686	0.5834	0.6095	0.6302	0.6544	0.67
343.2 K	1050.9	1088.8	–	–	–	–	–	–	–
353.2 K	1043.2	1080	–	–	–	–	–	–	–
363.2 K	1035	1072.1	–	–	–	–	–	–	–
